Entries after “also recorded” stand apart in the source; their conditions may differ.
Legend:
[1] = system: Agrobacterium tumefaciens (KYC55); test: Quorum sensing inhibition test with bio-reporter KYC55 (TLC overlay); format: cell-based; details: for Degree of QSI of KYC55: Table 1, coumaperine derivatives, 40 mM in ~20 μL acetonitrile dried on TLC plate, overnight, color intensity; for QSI activity against KYC55, in words: running text; for Degree of QSI of KYC55: key: −: no inhibition; +: low inhibition; ++: medium inhibition; +++: strong inhibition; for Degree of quorum sensing inhibition (QSI), KYC55: key: −: no inhibition; +: low inhibition; ++: medium inhibition; +++: strong inhibition
Procedure: (§1) TLC preparation: all derivatives were dissolved in 100% acetonitrile to a concentration of 40 mM. Then placed 20 μlon the same spot on the TLC and let the solvent evaporate before use. CV026: few colonies were transferred to liquid LB (Lenox) for overnight incubation at 30° C. in a 45 degree in orbital shaker. At the O.D. 0.8 3 ml of the starter was added to preheated soft LB agar containing 500 nM of 3-oxo-C6 (Sigma-Aldrich). The mixture was then loaded on the TLC in a glass plate for O.N. incubation in 30° C. The next day inhibition zone was measured, while QS is taking place bacteria produce purple pigment, and when QS is inhibited no pigment is produced. KYC55 (pJZ372) (pJZ384) (pJZ410): 20 μl from the frozen stock into 25 ml AT media (AT buffer×20: 1.57 M KH2PO4 pH=7.3. AT salts mix×20: 300 mM (NH4)2SO4, 13 mM MgSO4, 1.4 mM CaCl2, 0.4 mM FeSO4·7H2O, 0.26 mM MnSO4·H2O. AT media: 50 ml×20 AT-buffer, 50 ml×20 AT-salts, 10 ml 50% (w/v) glucose, add 890 ml to final volume of 1 liter.) For O.N. at 30° C. in an orbital shaker. Into preheated water agar with 25 ml AT-buffer, and 60 μg/ml X-gal and 5 nM 3-oxo-c8 (both from Sigma-Aldrich) 25 ml of the starter was added. Then, that mixture was loaded on the TLC in glass plate for O.N. incubation in 30° C. The next day the inhibition zone was measured. The bacteria produce blue pigment during QS and when QS is inhibited no pigment is produced. KYC55 (pJZ372) (pJZ384) (pJZ410) preservation in tetracycline (1 μg/ml), spectinomycin (100 μg/ml), gentamicin (100 μg/ml) (all antibiotics from Sigma Aldrich) in AT media O.N. then centrifuged and suspend in 15% glycerol frozen and maintained at −80° C.

[2] = system: Chromobacterium violaceum (CV026); test: Quorum sensing inhibition test with bio-reporter CV026 (TLC overlay); format: cell-based; details: for Degree of QSI of CV026: Table 1, coumaperine derivatives, 40 mM in ~20 μL acetonitrile dried on TLC plate, overnight, color intensity; for QSI activity against CV026, in words: running text; for Degree of QSI of CV026: key: −: no inhibition; +: low inhibition; ++: medium inhibition; +++: strong inhibition; for Degree of quorum sensing inhibition (QSI), CV026: key: −: no inhibition; +: low inhibition; ++: medium inhibition; +++: strong inhibition
Procedure: as §1

in vitro = details: human, LC50
Procedure: (§2) The human Hodgkin's Lymphoma derived L428 cell line was used as a model. The cells were grown in RPMI Medium 1640 with 10% FBS, 1% Glutamine and pen-strep (all from Biological Industries, Israel). […] Thirty thousand (30,000) cells/well were placed in 96-well plates with the coumaperine derivatives at different concentrations or with vehicle (DMSO) at a final volume of 200 μl. The plates were incubated for 48 hrs. at 37° C. and 5% CO2 followed by the addition of 50 μl of the XTT reagent tetrazolium-formazan, (Biological Industries, Israel) was added for 2 hrs. at 37° C., 5% CO2. In living cells, mitochondria […] the tetrazolium-formazan salt, thereby generating a color absorbing product at 450 nm. Absorbance was measured at 450 nm and 650 nm in an enzyme-linked immunosorbent assay (ELISA) plate reader (Multiskan Spectrum, Version 1.2), and recorded. Absorption values at 650 nm were subtracted from the blank and the 450 nm values. The results were normalized to the control (treated with DMSO).
(§3) Viability was determined in triplicate in two independent tests. The results were normalized to vehicle (DMSO) treated cells, (100% viability). Mean+SD.

[3] = system: quorum sensing (CV026 and KYC55); test: Quorum sensing inhibition, overall statement over the bio-reporter bacteria; format: cell-based; details: for QSI activity overall, in words: running text; for QSI: Table 6 summary
Procedure: as §1
All the synthesized compounds were evaluated for quorum sensing inhibition against two bioreporter bacteria strains, Chromobacterium violaceum (CV026) and Agrobacterium tumefaciens (KYC55) and the results are summarized in Table 1.

NF-kB = test: NF-kB-luciferase reporter gene assay in L428 cells; format: cell-based, human; details: Table 6 summary; note: key: +: active; −: inactive
Procedure: FIG. 7 includes a vertical bar graph showing a dose response of NF-kB activation according to an NF-kB reporter gene luciferase assay. L428 cells were stably transfected with the NF-kB luciferase reporter gene. The cells were incubated with the compounds at different concentrations for 2 hours. […] The results represent the percentage of NF-kB activation as compared to vehicle (DMSO) treated cells. All samples were normalized to protein concentration. Mean+SD, Two-way ANOVA and Tukey's multiple comparison test. 95% confidence interval (p-values *≤0.0332, **≤0.0021, ***≤0.0002).
L428 cells stable transfectants with the luciferase NF-kB-Luc reporter gene were generated previously described (Ozer et al., 2009), and were maintained in 500 μg/ml of G418 (G418 disulfate salt, Sigma-Aldrich). The cells (5×10^5 /well in triplicate) were incubated for 2 hrs. in 1 ml of medium containing the solvent (DMSO) or different concentrations of the molecules tested. Cells were then harvested, lysed, and monitored by a luciferase reporter assay kit (Promega) according to the manufacturer's instructions. Measurements were carried out using a luminometer (Promega, GLOMAX™ 20/20 Luminometer). Data were normalized to the protein concentration in each lysate as measured by the Bradford method (BioRad) and normalized to the control. Experiments were repeated at least three times.

[4] = system: gram-positive and gram-negative bacteria; test: Antibacterial activity, overall statement (diffusion discs test); format: cell-based; details: for Antibacterial: Table 6 summary; for Antibacterial activity, in words: running text
Procedure: All derivatives were dissolved in acetonitrile to a final concentration of 40 mM. Twenty (20) μl were loaded onto Whatman filter paper discs and dried. Bacillus subtilis, Staphylococcus aureus, and Acinetobacter baumannii were grown in LB (Lenox) O.N. One hundred (100) μl from the starter culture was plated on LB agar (Miller) dishes. Streptococcus sobrinus, and Streptococcus mutans grown in Brain Heary Infusion (BHI, Himedia) O.N. were similarly plated on BHI agar dishes. Discs were laid and incubated O.N. in 37° C. and the diameter of inhibition of bacterial growth was measured.
The antibacterial activities of derivatives showing QSI are outlined in Table 4. […] Similar to that idea, synthetic derivatives of furanon (product of marine algae) shown in-vivo QSI activity without antibacterial activity followed by immune response of the infected animal. Phenolic compounds decrease QS and virulence in PA01 and Chromobacterium violaceum. There is increasing number of studies, searching for compounds that targeting non-vital processes to combat bacteria.

L428 cells = test: in vitro
Procedure: as §2, §3

[5] = Table 2, piperlongumine derivatives

| Molecule | Degree of QSI of KYC55 [1] | QSI activity against KYC55, in words [1] | Degree of QSI of CV026 [2] | QSI activity against CV026, in words [2] | QSI activity overall, in words [3] | LC50 (L428 cells) | other results |
| --- | --- | --- | --- | --- | --- | --- | --- |
| COc1ccc(/C=C/C=C/C(=O)N2CCCCC2)cc1 [CP-38, (2E,4E)-5-(4-methoxyphenyl)-1-(piperidin-1-yl)penta-2,4-dien-1-one] | + | low | ++ | moderate |  |  | CC50 at 48 h (in vitro): 47.4 µM |
| O=C(/C=C/C=C/C=C/c1ccc2c(c1)OCO2)N1CCCCC1 [CP-155, (2E,4E,6E)-7-(benzo[d][1,3]dioxol-5-yl)-1-(piperidin-1-yl)hepta-2,4,6-trien-1-one] | − | inactive | − | inactive | do not inhibit |  |  |
| COc1cc(/C=C/C=C/C(=O)N2CCCCC2)ccc1O [CP-205] | ++ | moderate activity; also recorded: moderately active | ++ | moderate activity; also recorded: moderately active |  | Non-toxic | QSI [3]: +; Anti-inflammatory (NF-kB): +; Antibacterial [4]: −; Cytotoxic (L428 cells): −; Cytotoxic activity, in words (L428 cells): no cytotoxic activity |
| O=C(/C=C/c1ccc2c(c1)OCO2)N1CCCCC1 [CP-215, (E)-3-(benzo[d][1,3]dioxol-5-yl)-1-(piperidin-1-yl)prop-2-en-1-one] |  | highly active |  | highly active | active; also recorded: strong | Non-toxic | QSI [3]: +; QSI activity overall, in words ([3]; listed as CP215): anti QS activity; Anti-inflammatory (NF-kB): +; Antibacterial [4]: −; Antibacterial activity, in words [4]: did not show antibiotic activity; Cytotoxic (L428 cells): − |
| O=C(/C=C/c1ccc2c(c1)OCO2)N1CCCCC1 [CP-270, (E)-3-(benzo)-1-(piperidin-1-yl)prop-2-en-1-one] | +++ | highly QSI active | +++ | highly QSI active |  | Non-toxic | Antibacterial activity, in words [4]: did not; Cytotoxic activity, in words (L428 cells): no cytotoxic activity |
| O=C(/C=C/c1ccc(F)cc1)N1CCCCC1 [CP-273] | − | inactive | + | low activity | low QSI | Non-toxic |  |
| COc1ccc(/C=C/C(=O)N2CCCCC2)cc1 [CP-282] | ++ |  | +++ | more effective against CV026 than KYC55 |  | Non-toxic | Cytotoxic activity, in words (L428 cells): no cytotoxic activity |
| O=C(/C=C/c1ccc([N+](=O)[O-])cc1)N1CCCCC1 [CP-286] | ++ | moderate | + | low | anti QS activity | Non-toxic | QSI [3]: +; Anti-inflammatory (NF-kB): +; Antibacterial [4]: −; Antibacterial activity, in words [4]: did not show antibiotic activity; Cytotoxic (L428 cells): − |
| COc1ccc(/C=C/C(=O)N2CCCCC2)cc1OC [CP-289] | +++ | more effective against KYC55 than CV026 | + |  |  | Non-toxic | Cytotoxic activity, in words (L428 cells): no cytotoxic activity |
| COc1cc(/C=C/C(=O)N2CCC=CC2=O)cc(OC)c1OC [PL, Piperlongumine, reference compound] |  | inactive |  | inactive | inactive |  | Degree of quorum sensing inhibition (QSI), KYC55 [1, 5]: −; Degree of quorum sensing inhibition (QSI), CV026 [2, 5]: − |
| CCNC(=O)/C=C/c1cc(OC)c(OC)c(OC)c1 [PL-17, (E)-N-ethyl-3-(3,4,5-trimethoxyphenyl)acrylamide] |  | inactive |  | inactive |  |  | Degree of quorum sensing inhibition (QSI), KYC55 [1, 5]: −; Degree of quorum sensing inhibition (QSI), CV026 [2, 5]: − |
| COc1cc(/C=C/C(=O)NCc2ccccc2)cc(OC)c1OC [PL-20, (E)-N-benzyl-3-(3,4,5-trimethoxyphenyl)acrylamide] |  | inactive |  | moderate activity |  | Non-toxic | Degree of quorum sensing inhibition (QSI), KYC55 [1, 5]: −; Degree of quorum sensing inhibition (QSI), CV026 [2, 5]: ++ |
| COc1cc(/C=C/C(=O)N2CCCCC2=O)cc(OC)c1OC [PL-31] |  | inactive |  | low activity |  |  | Degree of quorum sensing inhibition (QSI), KYC55 [1, 5]: −; Degree of quorum sensing inhibition (QSI), CV026 [2, 5]: + |
| COc1cc(/C=C/C(=O)CC(=O)/C=C/c2ccc(O)c(OC)c2)ccc1O [curcumin, Curcumin, reference compound] |  | inactive |  | low activity |  |  | Degree of quorum sensing inhibition (QSI), KYC55 ([1]; Table 3, curcumin derivatives): −; Degree of quorum sensing inhibition (QSI), CV026 ([2]; Table 3, curcumin derivatives): + |
| Piperine [reference compound] | − | inactive | − | inactive | do not inhibit |  |  |
